Laboratory results: article PMC11420244, “Evaluation of the effect of modafinil on the pharmacokinetics of encorafenib and binimetinib in patients with BRAF V600-mutant advanced solid tumors” (Cancer Chemotherapy and Pharmacology, 2024)
Read-outs that look alike come from different tables or passages of the source.

Legend:
[1] = cited from earlier work
[2] = cited from earlier work; for Effect of Strong CYP3A Inducer on AUC (decrease): Rifampin
[3] = Reported DDI studies of CYP3A substrates with strong, moderate or weak CYP3A inducers; format: in vivo
Text: (§1) Another strategy to predict the effect strong induction may have on encorafenib PK, or the PK of other CYP3A substrates, but with fewer assumptions was proposed in a review by Molenaar-Kuijsten et al.. Based on a review of 12 approved oral anticancer drugs primarily metabolized by CYP3A, if no clinical DDI data were available for moderate inducers, an effect of 50% compared to strong inducers could be assumed. After expanding the dataset of Molenaar-Kuijsten to include 3 additional approved oral anti-cancer drugs (fuzuloparib, pirtobrutinib, and fedratinib) metabolized by CYP3A, we applied this approach in the opposite direction (lack of clinical data for the effect of strong CYP3A4 inducers) given available clinical DDI data generated in this study for encorafenib (Table 3). The median ratio of the decrease for a strong inducer to a moderate inducer was 1.56 and ranged from 1.15 for cobimetinib to 2.43 for palbociclib. […] The upper end of this range is consistent with PBPK simulations conducted prior to the study, indicating encorafenib exposures would decrease by ∼ 58% in combination with rifampin (based on a model with some simplifying assumptions) and would also be consistent with the recommendations based on in vitro data to avoid strong inducers in combination with encorafenib. This approach to managing potential coadminsitration of encorafenib with a strong inducer of CYP3A is the most conservative due to lack of more precise extrapolation methods and clincial data.

[4] = Phase 1 clinical DDI study: steady-state plasma PK (noncompartmental analysis) with and without modafinil; format: in vivo, Human; conditions: for MRAUC last (metabolite ratio), Median (range) / MRC max (metabolite ratio), Median (range): metabolite to parent; for AUClast, Median (range) / Cmax, Median (range) / T1/2, Median (range) / Tmax, Median (range) / Tmax / AUC(0-t) / Cmax / half-life: plasma, patients; for Tmax / AUC(0-t) / Cmax / half-life: human; for Tmax: read-out: Tmax, Median (range)
Method: Encorafenib 450 mg QD and binimetinib 45 mg BID were administered starting on Day 1. Patients then received continuous treatment of 400 mg QD modafinil on Day 15 through Day 21. Blood samples for measurement of plasma concentrations of encorafenib (and its metabolite, LHY746) and binimetinib (and its active metabolite, AR00426032), were collected at 0, 1, 2, 3, 4, 6 and 8 h post dose on Day 14 and Day 21.
Human PK plasma samples were analyzed for quantitation of all PK analytes at PPD (Middleton, Wisconsin, US) using validated, sensitive, and specific HPLC/MS/MS methods in compliance with laboratory SOPs.
PK parameters including, but not limited to, Cmax and AUClast were calculated for each participant using noncompartmental analysis (NCA) methods using the WinNonlin software package (Phoenix WinNonlin Professional, version 8.0 Pharsight Corporation, Mountain View, California) for PK analytes including encorafenib and its metabolite LHY746, and binimetinib and its metabolite AR00426032.
All patients who received at least one dose of any study drug were included in the Safety Set population. The Evaluable PK Set included all patients with sufficient concentration data to calculate at least one PK parameter for encorafenib and binimetinib on Days 14 and 21. Patients who discontinued, missed 3 or more consecutive doses of encorafenib prior to completion of the last PK sampling on Day 14, or required a dose reduction of encorafenib prior to completion of the last PK sampling on Day 14 were excluded from the Evaluable PK set. In addition, patients who missed any dose of study drugs on any of the PK days, or who vomited within 4 h after dosing on any of the PK days were excluded from Evaluable PK set.
An analysis of variance (ANOVA) was performed on the natural log (ln)-transformed Cmax and AUClast of encorafenib, LHY746, binimetinib, and AR00426032. The least squares means (LSM) geometric mean ratio (GMR) and associated 90% confidence interval (CI) for each PK parameter were calculated using the exponentiation of the difference between treatment LSM from the analyses on the ln-transformed parameters and expressed as a percentage of Day 21 relative to Day 14.

[5] = parameters: method as in PMID 28611198; conditions: cited from earlier work
[6] = cited from earlier work; remark: listed apart in the source
[7] = test system: CYP2C19; conditions: cited from earlier work
[8] = parameters: method as in PMID 37837178; conditions: cited from earlier work
[9] = test system: CYP3A4; parameters: method as in earlier work; conditions: human liver microsomes; cited from earlier work
[10] = Extrapolation of strong CYP3A inducer effect on encorafenib from the moderate inducer effect (strong/moderate ratio approach); conditions: extrapolated from the modafinil effect with strong/moderate ratios 1.15 to 2.43
Text: as §1, with “This approach to managing potential coadminsitration of encorafenib with a strong inducer of CYP3A is the most conservative due to lack of more precise extrapolation methods and clincial data.” left out

[11] = Day 14, without modafinil, steady state
[12] = Day 21 (with modafinil) relative to Day 14 (without)
[13] = Day 21, with modafinil 400 mg QD
[14] = Day 21, with modafinil 400 mg QD, steady state

## O=C1Nc2ccc(Cl)cc2[C@@](C#CC2CC2)(C(F)(F)F)O1 [efavirenz]
[1]
  Patients with neuropsychiatric effects: up to 70%

## Cc1cc(Nc2ncc(Cl)c(Nc3ccccc3S(=O)(=O)C(C)C)n2)c(OC(C)C)cc1C1CCNCC1 [Ceritinib]
[2]; Efavirenz
  Effect of Moderate CYP3A Inducer on AUC (decrease): ↓ 43%
[2]
  Effect of Strong CYP3A Inducer on AUC (decrease): ↓ 68.5%
[3]; ratio of AUC decreases
  Strong CYP3A Inducer Effect /Moderate CYP3A Inducer Effect: 1.59

## O=C(c1cc(Cc2n[nH]c(=O)c3ccccc23)ccc1F)N1CCn2nc(C(F)(F)F)nc2C1 [Fuzuloparib]
[2]; Efavirenz
  Effect of Moderate CYP3A Inducer on AUC (decrease): ↓ 22%
[2]
  Effect of Strong CYP3A Inducer on AUC (decrease): ↓ 32%
[3]; ratio of AUC decreases
  Strong CYP3A Inducer Effect /Moderate CYP3A Inducer Effect: 1.45

## Cc1c(C(=O)Nc2ccc(N3C[C@@H](C)O[C@@H](C)C3)nc2)cccc1-c1ccc(OC(F)(F)F)cc1 [Sonidegib]
[2]; Efavirenz
  Effect of Moderate CYP3A Inducer on AUC (decrease): ↓ 49%
[2]
  Effect of Strong CYP3A Inducer on AUC (decrease): ↓ 76.6%
[3]; ratio of AUC decreases
  Strong CYP3A Inducer Effect /Moderate CYP3A Inducer Effect: 1.56

## Cc1nnc2n1-c1ccc(Cl)cc1C(c1ccccc1Cl)=NC2 [triazolam]
[2]; modafinil 200 mg for 7 days followed by 400 mg for 21 days
  Decrease on mean AUCinf with modafinil: 59%

## Cc1cnc(Nc2ccc(OCCN3CCCC3)cc2)nc1Nc1cccc(S(=O)(=O)NC(C)(C)C)c1 [Fedratinib]
[2]; Efavirenz
  Effect of Moderate CYP3A Inducer on AUC (decrease): ↓ 47%
[2]
  Effect of Strong CYP3A Inducer on AUC (decrease): ↓ 81%
[3]; ratio of AUC decreases
  Strong CYP3A Inducer Effect /Moderate CYP3A Inducer Effect: 1.72

## C=CC(=O)Nc1cc(Nc2nccc(-c3cn(C)c4ccccc34)n2)c(OC)cc1N(C)CCN(C)C [Osimertinib]
[2]; Efavirenz
  Effect of Moderate CYP3A Inducer on AUC (decrease): ↓ 42%
[2]
  Effect of Strong CYP3A Inducer on AUC (decrease): ↓ 78.5%
[2]; listed as osimertinib
  Effect of Strong CYP3A Inducer on AUC (decrease): 87%
[3]; human, in vivo
  Strong CYP3A Inducer Effect /Moderate CYP3A Inducer Effect: 1.87

## O=C(NOCCO)c1cc2[nH]cnc2c(F)c1Nc1ccc(Br)cc1F [AR00426032]
[4]; Day 14, without modafinil
  MRAUC last (metabolite ratio), Median (range): 0.0482 (0.0182–0.138)
  MRC max (metabolite ratio), Median (range): 0.0367 (0.0165–0.0926)
[4]; [11]
  AUClast, Median (range): 127 (36.1–226) ng*hr/mL
  Cmax, Median (range): 27.5 (8.23–53.4) ng/mL
  T1/2, Median (range): 5.44 (2.57–8.86) hr
  Tmax, Median (range): 2.00 (0.88-3.00) hr
[4]; [12]
  AUClast GMR (geometric mean ratio): 0.977
  Cmax GMR (geometric mean ratio): 0.954
  MRAUClast GMR: 1.02
  MRCmax GMR: 0.950
[4]; [13]
  MRAUC last (metabolite ratio), Median (range): 0.0440 (0.0275–0.123)
  MRC max (metabolite ratio), Median (range): 0.0335 (0.0192–0.0850)
[4]; [14]
  AUClast, Median (range): 111 (70.9–197) ng*hr/mL
  Cmax, Median (range): 23.8 (13.7–40.0) ng/mL
  T1/2, Median (range): 5.75 (2.88–18.1) hr
  Tmax, Median (range): 2.00 (0.95–2.23) hr
[4]; Days 14 and 21, steady state
  Time at which mean plasma concentrations typically reach peak levels, postdose: 2 h

## NC(=O)C[S+]([O-])C(c1ccccc1)c1ccccc1 (stereo not shown) [modafinil]
[1]
  Patients with headache (only observed AE above this frequency): > 15%

## CC(=O)c1c(C)c2cnc(Nc3ccc(N4CCNCC4)cn3)nc2n(C2CCCC2)c1=O [Palbociclib]
[2]; Efavirenz
  Effect of Moderate CYP3A Inducer on AUC (decrease): 38%
[2]; Modafinil
  Effect of Moderate CYP3A Inducer on AUC (decrease): 32%
[2]
  Effect of Strong CYP3A Inducer on AUC (decrease): ↓ 85.2%
[2]; mean of modafinil and efavirenz
  Effect of Moderate CYP3A Inducer on AUC (decrease), mean: ↓ 35% (mean)
[3]; ratio of AUC decreases
  Strong CYP3A Inducer Effect /Moderate CYP3A Inducer Effect: 2.43

## COc1ccc(F)cc1C(=O)NCc1ccc(-c2nn([C@@H](C)C(F)(F)F)c(N)c2C(N)=O)cc1 [Pirtobrutinib]
[2]; Efavirenz
  Effect of Moderate CYP3A Inducer on AUC (decrease): ↓ 49%
[2]
  Effect of Strong CYP3A Inducer on AUC (decrease): ↓ 71%
[3]; ratio of AUC decreases
  Strong CYP3A Inducer Effect /Moderate CYP3A Inducer Effect: 1.45

## O=C(c1cc(Cc2n[nH]c(=O)c3ccccc23)ccc1F)N1CCN(C(=O)C2CC2)CC1 [Olaparib]
[2]; Efavirenz
  Effect of Moderate CYP3A Inducer on AUC (decrease): ↓ 57.3%
[3]; ratio of AUC decreases
  Strong CYP3A Inducer Effect /Moderate CYP3A Inducer Effect: 1.38

## COC(=O)N[C@@H](C)CNc1nccc(-c2cn(C(C)C)nc2-c2cc(Cl)cc(NS(C)(=O)=O)c2F)n1 [Encorafenib, encorafenib]
[5]
  Lower exposure at steady-state compared to following a single dose (auto-induction of CYP3A4): approximately 50%
[6]; PBPK simulations conducted prior to the study
  Simulated decrease of exposures in combination with rifampin: ~58%
[7]
  Contribution of CYP2C19 to oxidative metabolism: ~16%
[8]
  Increase in exposures on coadministration of moderate CYP3A4 inhibitor diltiazem: 2 fold
  Increase in exposures on coadministration of strong CYP3A inhibitor posaconazole: 3 fold
[4]; [12]
  AUClast GMR (geometric mean ratio): 0.762
  Cmax GMR (geometric mean ratio): 0.798
[4]; Day 21 vs Day 14, modafinil 400 mg QD
  Effect of steady-state modafinil on exposure/PK (in words): weak effect
[4]; oral, Day 14, without modafinil, steady state
  Tmax: 1 h
[4]; oral, Day 21, with modafinil 400 mg QD, steady state
  Tmax: 1 h
[4]; oral, 400 mg, Day 21, with modafinil 400 mg QD, steady state, read-out: AUClast, GM (CV%)
  AUC(0-t): 9100 ng·h/mL
[4]; oral, 400 mg, Day 21, with modafinil 400 mg QD, steady state, read-out: AUClast, Median (range)
  AUC(0-t): 10000 ng·h/mL
[4]; oral, 400 mg, Day 21, with modafinil 400 mg QD, steady state, read-out: Cmax, Median (range)
  Cmax: 2750 ng/mL
[4]; oral, 400 mg, Day 21, with modafinil 400 mg QD, steady state, read-out: T1/2, GM (CV%) (converted)
  half-life: 3.57 h
[4]; oral, 400 mg, Day 21, with modafinil 400 mg QD, steady state, read-out: T1/2, Median (range) (converted)
  half-life: 3.8 h
[4]; oral, Day 14, without modafinil, steady state, read-out: AUClast, GM (CV%)
  AUC(0-t): 11900 ng·h/mL
[4]; oral, Day 14, without modafinil, steady state, read-out: AUClast, Median (range)
  AUC(0-t): 11800 ng·h/mL
[4]; oral, Day 14, without modafinil, steady state, read-out: Cmax, Median (range)
  Cmax: 3560 ng/mL
[4]; oral, Day 14, without modafinil, steady state, read-out: T1/2, GM (CV%) (converted)
  half-life: 3.48 h
[4]; oral, Day 14, without modafinil, steady state, read-out: T1/2, Median (range) (converted)
  half-life: 3.5 h
[4]; po, Day 14, without modafinil, steady state, encorafenib 450 mg QD + binimetinib 45 mg BID oral, read-out: Cmax, GM (CV%)
  Cmax: 3540 ng/mL
[4]; po, Day 21, with modafinil 400 mg QD Days 15-21, steady state, encorafenib 450 mg QD + binimetinib 45 mg BID oral, read-out: Cmax, GM (CV%)
  Cmax: 2830 ng/mL
[9]
  Contribution of CYP3A4 to total oxidative clearance: ~83%
[10]
  Expected reduction in AUC with a strong CYP3A inducer: 28–58%

## O=C(c1ccc(F)c(F)c1Nc1ccc(I)cc1F)N1CC(O)([C@@H]2CCCCN2)C1 [Cobimetinib]
[2]; Efavirenz
  Effect of Moderate CYP3A Inducer on AUC (decrease): ↓ 72%
[2]
  Effect of Strong CYP3A Inducer on AUC (decrease): ↓ 83%
[2]; in vivo
  Reduction in exposure in combination with weak CYP3A inducer vemurafenib: 13%
[6]; PBPK modeling
  Predicted reduction in AUC with moderate CYP3A inducer: 72%
  Predicted reduction in AUC with strong CYP3A inducer: 83%
[3]; ratio of AUC decreases
  Strong CYP3A Inducer Effect /Moderate CYP3A Inducer Effect: 1.15
